Where a name gives a salt, the structure may show the parent alone.
Key:
common marmosets = experiment: ORD test (object retrieval with detour test) in marmosets; assay type: in vivo, common marmoset; conditions: for variation of the correct % of the ORD test (difficult task): single oral administration, test 2 hours after administration vs before, FIG. 2-6
Description: ORD test (object retrieval with detour test) is already reported as a method for evaluating executive function (attention function/impulsiveness) in primates.
Male and female common marmosets having body weights of 250-450 g were used. Haloperidol, clozapine, olanzapine, risperidone, and lurasidone hydrochloride were separately suspended in 0.5% methylcellulose (MC), and then each suspension was orally administered in a dose of 5 mL/kg to the marmosets. On the other hand, L-745,870 which is a D4 antagonist, and Ro 10-5824 which is a D4 agonist were separately dissolved in saline, and then each solution was intramuscularly administered to the femoris area in a dose of 0.5 mL/kg.
According to the method described in the literature (Psychopharmacology (2006) 196: 643-648) which was partially modified, the ORD test was carried out as follows (see FIG. 1).
In each of the boxes, 0.3-0.5 g of Baumkuchen as a food reward is placed at the point of each triangle in FIG. 1. The marmoset can reach out from the cage (shown as dotted line region) to obtain the reward placed in the acrylic box. FIG. 1 is a view from the directly above. Amongst the situations between each direction of the box and each position of the reward, 5 patterns (line of sight, left outside, left inside, right outside, and right inside) are defined as “easy task”, and the other 2 patterns (left deep, and right deep) are defined as “difficult task”. It is recorded as “correct” when the test animal can obtain the reward in one trial, while it is recorded as “incorrect” when the animal can obtain the reward in the second trial or later.
The ORD test is carried out in the order described in the following table without any interval between each trial, which is referred to as “one series”. The marmoset is made to be trained with the one series once a day.
The marmosets were trained with the ORD test at least 10 times, and then the trained marmosets were used in the following main test.
The main ORD test was carried out as follows.
(1) The ORD test is carried out before administering each test drug (former value). Hereinafter, the ORD test is done in one series containing the 17 trials corresponding to the above-mentioned training.
(2) Two hours after administering each test drug, the same ORD test is carried out again (latter value). In case of the combined administration, the first drug (lurasidone hydrochloride) is administered; one hour later, the second drug (the D4 antagonist or D agonist) is administered; and then the ORD test is done one hour after the second drug is administered.
(3) The variation of correct % in the Difficult task is calculated according to the following formula in order to evaluate the effect of each drug. For example, in case that the “correct count” in the before-administration test (former value) is 3 and the “correct count” in the after-administration test (latter value) is 5, the “correct %” is calculated to rise in 25% (=(5-3)/8×100%) based on the fact that the trial count of the difficult task in each series is 8.
The variation of the correct %={the difference between the both correct counts in the difficult task (latter value−former value)}/8×100
(4) The amount of Baumkuchen is 0.5 g×17=8.5 g in one series. The marmoset can be tested at most 2 sets per day, i.e. it has been confirmed that the marmoset can take at most 17 g of Baumkuchen per day, but, all the test marmosets cannot be satisfied with 17 g of Baumkuchen.
(5) In case that a marmoset treated with the drug is used again, the marmoset is given in 2 week-drug-holidays, and before the test it is confirmed that the previous medication will not affect the test.
(6) 5 to 6 marmosets were used per one test group. When a marmoset (s) suffered from vomiting or cataleptic akinesia induced by the drug and then the ORD test with the marmoset (s) could not be done, the data of the marmoset(s) were excluded. […]

5-HT2A = 5-HT2A (Homo sapiens, UniProt P28223); conditions: cited from earlier work
5-HT2A, sequence (P28223 whole entry, species assumed): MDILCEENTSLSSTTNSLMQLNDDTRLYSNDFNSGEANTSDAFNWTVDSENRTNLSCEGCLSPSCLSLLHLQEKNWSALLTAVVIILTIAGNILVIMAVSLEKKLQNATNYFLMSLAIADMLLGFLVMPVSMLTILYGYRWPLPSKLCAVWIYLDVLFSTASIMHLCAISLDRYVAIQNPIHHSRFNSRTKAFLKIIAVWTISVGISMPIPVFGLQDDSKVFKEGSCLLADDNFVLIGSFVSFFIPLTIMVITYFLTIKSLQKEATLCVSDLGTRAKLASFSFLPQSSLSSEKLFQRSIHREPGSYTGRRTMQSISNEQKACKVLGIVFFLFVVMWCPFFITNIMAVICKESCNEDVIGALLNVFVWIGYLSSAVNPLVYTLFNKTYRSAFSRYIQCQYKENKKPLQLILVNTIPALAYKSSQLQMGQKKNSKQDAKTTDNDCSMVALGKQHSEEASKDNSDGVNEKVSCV

histamine H1 = histamine H1 (Homo sapiens, UniProt P35367); conditions: cited from earlier work
histamine H1, sequence (P35367 whole entry): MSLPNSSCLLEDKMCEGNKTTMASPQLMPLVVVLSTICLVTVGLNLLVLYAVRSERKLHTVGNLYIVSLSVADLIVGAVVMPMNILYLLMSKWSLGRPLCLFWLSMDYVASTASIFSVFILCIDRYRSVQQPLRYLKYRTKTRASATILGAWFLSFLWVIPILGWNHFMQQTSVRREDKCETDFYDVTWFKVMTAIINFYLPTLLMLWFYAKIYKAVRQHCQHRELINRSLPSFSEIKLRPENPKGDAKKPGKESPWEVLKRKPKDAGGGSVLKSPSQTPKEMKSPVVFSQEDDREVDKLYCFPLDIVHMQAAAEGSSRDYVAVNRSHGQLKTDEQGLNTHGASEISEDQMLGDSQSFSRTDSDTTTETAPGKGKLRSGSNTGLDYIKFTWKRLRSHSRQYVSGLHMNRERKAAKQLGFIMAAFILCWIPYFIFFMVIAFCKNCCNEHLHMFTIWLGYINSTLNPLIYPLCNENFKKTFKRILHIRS

serotonin 5-HT1A = target: T1, serotonin 5-HT1A (Homo sapiens, UniProt P08908); conditions: cited from earlier work
T1 sequence (P08908 1-422): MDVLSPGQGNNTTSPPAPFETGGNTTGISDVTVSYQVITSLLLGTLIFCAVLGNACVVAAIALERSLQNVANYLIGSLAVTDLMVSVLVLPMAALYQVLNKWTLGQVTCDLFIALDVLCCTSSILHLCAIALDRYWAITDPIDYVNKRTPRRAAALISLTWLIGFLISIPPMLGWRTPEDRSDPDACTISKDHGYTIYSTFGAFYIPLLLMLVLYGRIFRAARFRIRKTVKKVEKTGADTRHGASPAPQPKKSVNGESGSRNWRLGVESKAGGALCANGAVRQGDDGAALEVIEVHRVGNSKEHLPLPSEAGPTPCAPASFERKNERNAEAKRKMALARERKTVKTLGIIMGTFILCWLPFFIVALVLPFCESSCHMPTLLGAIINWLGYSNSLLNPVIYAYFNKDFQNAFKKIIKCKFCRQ

muscarinic M1 receptors = target: T2, muscarinic M1 receptors (Homo sapiens, UniProt P11229); conditions: cited from earlier work
T2 sequence (P11229 1-460): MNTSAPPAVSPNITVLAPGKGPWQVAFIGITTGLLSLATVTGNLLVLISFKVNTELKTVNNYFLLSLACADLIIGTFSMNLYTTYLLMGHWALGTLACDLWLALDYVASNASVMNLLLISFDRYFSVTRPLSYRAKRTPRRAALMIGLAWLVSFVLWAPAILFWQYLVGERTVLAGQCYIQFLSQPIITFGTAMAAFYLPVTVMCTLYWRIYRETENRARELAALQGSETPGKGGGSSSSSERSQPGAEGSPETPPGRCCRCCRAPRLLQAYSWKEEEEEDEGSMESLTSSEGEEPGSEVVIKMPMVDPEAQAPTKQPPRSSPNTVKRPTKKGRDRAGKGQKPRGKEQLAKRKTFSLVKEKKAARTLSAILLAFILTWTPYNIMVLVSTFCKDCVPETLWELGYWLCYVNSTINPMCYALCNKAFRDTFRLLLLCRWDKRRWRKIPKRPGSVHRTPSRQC

[1] = target: T3, noradrenaline α2c receptors (Homo sapiens, UniProt P18825); conditions: cited from earlier work
T3 sequence (P18825 1-462): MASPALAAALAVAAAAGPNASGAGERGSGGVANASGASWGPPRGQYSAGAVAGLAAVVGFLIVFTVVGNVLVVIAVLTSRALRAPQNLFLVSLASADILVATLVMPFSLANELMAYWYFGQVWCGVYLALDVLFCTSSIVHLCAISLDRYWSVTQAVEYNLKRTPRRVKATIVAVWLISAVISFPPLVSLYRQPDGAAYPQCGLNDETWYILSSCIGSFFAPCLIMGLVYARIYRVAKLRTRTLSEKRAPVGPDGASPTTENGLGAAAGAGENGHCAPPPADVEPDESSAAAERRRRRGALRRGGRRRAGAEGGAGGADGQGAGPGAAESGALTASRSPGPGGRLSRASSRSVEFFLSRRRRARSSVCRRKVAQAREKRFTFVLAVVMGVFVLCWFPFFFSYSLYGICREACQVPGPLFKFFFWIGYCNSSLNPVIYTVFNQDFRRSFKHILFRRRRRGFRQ

5-HT7 = 5-HT7 (Homo sapiens, UniProt P34969); conditions: cited from earlier work
5-HT7, sequence (P34969 whole entry, species assumed): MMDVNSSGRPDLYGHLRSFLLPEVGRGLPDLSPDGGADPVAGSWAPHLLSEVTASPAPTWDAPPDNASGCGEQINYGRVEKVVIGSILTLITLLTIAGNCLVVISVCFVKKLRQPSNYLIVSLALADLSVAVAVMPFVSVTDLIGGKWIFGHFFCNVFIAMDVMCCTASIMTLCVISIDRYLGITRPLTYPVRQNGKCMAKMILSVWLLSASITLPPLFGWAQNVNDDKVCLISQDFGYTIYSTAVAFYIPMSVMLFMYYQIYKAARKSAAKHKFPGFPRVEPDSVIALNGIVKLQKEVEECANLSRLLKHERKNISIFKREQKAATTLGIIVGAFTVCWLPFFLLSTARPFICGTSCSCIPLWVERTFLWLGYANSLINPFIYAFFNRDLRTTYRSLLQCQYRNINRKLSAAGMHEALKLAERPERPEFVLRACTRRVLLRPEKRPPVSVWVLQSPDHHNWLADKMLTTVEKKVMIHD

dopamine D2 = dopamine D2 (Homo sapiens, UniProt P14416); conditions: cited from earlier work
dopamine D2, sequence (P14416 whole entry): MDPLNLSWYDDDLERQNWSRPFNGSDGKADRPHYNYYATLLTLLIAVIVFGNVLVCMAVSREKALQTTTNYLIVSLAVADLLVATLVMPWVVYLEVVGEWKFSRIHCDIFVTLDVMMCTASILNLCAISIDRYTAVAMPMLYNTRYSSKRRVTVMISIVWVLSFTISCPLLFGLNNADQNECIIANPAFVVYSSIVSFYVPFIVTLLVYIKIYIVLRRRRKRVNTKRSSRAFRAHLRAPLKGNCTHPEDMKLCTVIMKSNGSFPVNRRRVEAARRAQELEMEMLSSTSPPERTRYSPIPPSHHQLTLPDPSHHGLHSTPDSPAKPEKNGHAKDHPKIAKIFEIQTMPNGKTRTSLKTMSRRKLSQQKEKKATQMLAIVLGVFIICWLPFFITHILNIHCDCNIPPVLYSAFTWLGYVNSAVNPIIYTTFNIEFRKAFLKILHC

SHRSP rats = experiment: Y-maze test with juvenile SHRSP rats; assay type: in vivo, rat; conditions: for Total Arm Entries mean ± SE / % of Alternation Behavior mean ± SE: SHRSP; for Total Arm Entries mean ± SE: 8 minute session; for % of Alternation Behavior mean ± SE: 30 minutes before evaluation
Source text: According to the Y-maze test with juvenile stroke-prone spontaneously hypertensive rats (SHRSP), it is possible to evaluate the effect of lurasidone hydrochloride on attention function with spontaneous Alternation Behavior as an index of attention or concentration (Behav Brain Funct. 2005 Jul. 15; 1:9). Moreover, the effects of lurasidone hydrochloride on hyperactivity, which is one of core symptoms in ADHD, can be confirmed by the total number of the Arm Entries in a Y-maze test.
For the estimation of inattentive behavior, male juvenile SHRSP rats as an ADHD model and WKY rats as a reference (4 weeks old, n=8-10/group) are used. These animals are commercially available from Charles River Laboratories Japan, inc. or Hoshino Laboratory animals, inc. Lurasidone hydrochloride (e.g. 0.01, 0.03, 0.1, 0.3, 1, 3 and 10 mg/kg; produced by Dainippon Sumitomo Pharma Co., Ltd.) is dissolved in 0.5% methylcellulose and 0.2% Tween 80, and is administrated intraperitoneally in a volume of 1 ml/kg, 30 minutes before the evaluation.
The method of Y-maze test was already reported elsewhere (Behav Pharmacol. 2002 February; 13(1):1-13). The “Arm Entry” means the entry of all four paws into one arm. The “Alternation Behavior”, which is actual alternations, means the consecutive Arm Entries into three different arms. The test is carried out for 8 minutes in one session and the total number that a rat performs the Arm Entry is counted. The “Maximum Alternations” means the total number of the Arm Entries minus two. An index of attention is calculated as a percentage of the Alternation Behavior, as described below.
A percentage of Alternation Behavior=(the total number of the Alternation Behavior)/(the Maximum Alternations)×100

**Q.** Which “correct % of the ORD test” value (common marmosets; L-745,870 3 mg/kg i.m. combined with lurasidone hydrochloride 10 mg/kg p.o., FIG. 7) does the source give for Clc1ccc(N2CCN(Cc3c[nH]c4ncccc34)CC2)cc1 [L-745,870] here?
**A.** decreased the correct % which was increased by the administration of lurasidone hydrochloride

**Q.** What about the ORD score (common marmosets; single intramuscular administration, 10 mg/kg, FIG. 7) of the same compound?
**A.** had no effects on the ORD score

**Q.** Which affinity (5-HT2A) does the source give for O=C1[C@@H]2[C@H]3CC[C@H](C3)[C@@H]2C(=O)N1C[C@@H]1CCCC[C@H]1CN1CCN(c2nsc3ccccc23)CC1 [Lurasidone, (3aR, 4S, 7R, 7aS)-2-{1(1R,2R)-2-(4-(1,2-benzisothiazol-3-yl)piperazin-1-yl-methyl]cyclohexylmethyl}hexahydro-4,7-methano-2H-isoindole-1,3-dione] here?
**A.** high affinity

**Q.** And the affinity (histamine H1)?
**A.** minimal to no affinity

**Q.** What about the affinity (serotonin 5-HT1A) of the same compound?
**A.** high affinity

**Q.** And the affinity (muscarinic M1 receptors)?
**A.** minimal to no affinity

**Q.** And the affinity [1]?
**A.** high affinity

**Q.** What about the affinity (5-HT7) of the same compound?
**A.** high affinity

**Q.** What about the affinity (dopamine D2) of the same compound?
**A.** high affinity

**Q.** Which “correct % of the ORD test” value (common marmosets; Ro 10-5824 alone, 0.3 mg/kg i.m.) does the source give for Cc1ncc(CN2CC=C(c3ccccc3)CC2)c(N)n1 [Ro 10-5824, 2-Methyl-5-(4-phenyl-1,2,3,6-tetrahydropyridin-1-yl-methyl)pyrimidine-4-amine] here?
**A.** had no effects on the correct %

**Q.** What about the ORD score (common marmosets; single administration i.m., dose series, FIG. 8) of the same compound?
**A.** increased the ORD score in a dose dependent manner

**Q.** Which “variation of the correct % of the ORD test (difficult task)” value (common marmosets) does the source give for O=C(CCCN1CCC(O)(c2ccc(Cl)cc2)CC1)c1ccc(F)cc1 [haloperidol] here?
**A.** decreased the correct % of the ORD test in a dose-dependent manner

**Q.** For O=C1[C@@H]2[C@H]3CC[C@H](C3)[C@@H]2C(=O)N1C[C@@H]1CCCC[C@H]1CN1CCN(c2nsc3ccccc23)CC1 [lurasidone hydrochloride], which ORD score (common marmosets; lurasidone hydrochloride 3 mg/kg p.o. combined with Ro 10-5824 0.3 mg/kg i.m., FIG. 8) is on record?
**A.** the ORD score was significantly increased

**Q.** And the “correct % of the ORD test” value (common marmosets; lurasidone hydrochloride alone, 3 mg/kg p.o.)?
**A.** had no effects on the correct %

**Q.** And the “variation of the correct % of the ORD test (difficult task)” value (common marmosets)?
**A.** increased the correct % of the ORD test in a dose-dependent manner

**Q.** And the “Total Arm Entries mean ± SE” value (SHRSP rats; 0.1 mg/kg i.p.)?
**A.** 24 ± 1

**Q.** And the “% of Alternation Behavior mean ± SE” value (SHRSP rats; 0.1 mg/kg i.p.)?
**A.** 70 ± 5%

**Q.** And the “Total Arm Entries mean ± SE” value (SHRSP rats; 0.3 mg/kg i.p., P < 0.05)?
**A.** 22 ± 2

**Q.** And the “% of Alternation Behavior mean ± SE” value (SHRSP rats; 0.3 mg/kg i.p., P < 0.05)?
**A.** 75 ± 2 %

**Q.** What about the “Total Arm Entries mean ± SE” value (SHRSP rats; 1.0 mg/kg i.p., P < 0.05) of the same compound?
**A.** 21 ± 1

**Q.** What about the “% of Alternation Behavior mean ± SE” value (SHRSP rats; 1.0 mg/kg i.p.) of the same compound?
**A.** 72 ± 2%

**Q.** What about the “Alternation Behavior (in words)” value (SHRSP rats; SHRSP, 0.1, 0.3 or 1.0 mg/kg, significant at 0.3 mg/kg (p=0.0124)) of the same compound?
**A.** the Alternation Behavior was improved

**Q.** What about the “number of total Arm Entries (in words)” value (SHRSP rats; SHRSP, 0.1, 0.3 or 1.0 mg/kg, significant at 0.3 (p=0.0096) and 1 (p=0.0047) mg/kg) of the same compound?
**A.** showed the decreased number of total Arm Entries

**Q.** With Cc1nc2n(c(=O)c1CCN1CCC(c3noc4cc(F)ccc34)CC1)CCCC2 [risperidone] as the compound, how does the “variation of the correct % of the ORD test (difficult task)” value (common marmosets) read?
**A.** decreased the correct % of the ORD test in a dose-dependent manner

— patent US20190022091A1, “METHOD OF TREATMENT FOR MENTAL DISORDERS” (SUMITOMO DAINIPPON PHARMA CO., LTD., priority 2010, published 2019)
